In PubChem BioAssay AID192 (DTP/NCI, 2004):
Values joined by “and” are separate entries in the source; they are usually repeats but may differ in a detail not shown here. Equal entries are not always repeated. Toxic doses and inconclusive results are not listed.

Test system: BDF1 mice, B16 melanoma ip, median survival T/C
Assay: NCI In Vivo Anticancer Drug Screen. Data for tumor model B16 Melanoma (intraperitoneal) in B6D2F1 (BDF1) mice
Conditions: endpoint: median survival time, higher = longer survival
Summary of the method: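 Mice with transplantable tumors; drug vs vehicle groups; endpoint survival or tumor size; value = T/C.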

[1] = dose: 100.0 mg/kg/injection, schedule: Q01DX009 (ip), vehicle: Klucel (hydroxypropylcellulose) (HPC)
[2] = dose: 200.0 mg/kg/injection, schedule: Q01DX009 (ip), vehicle: Klucel (hydroxypropylcellulose) (HPC)

C=C1C(=O)O[C@@H]2/C=C(/C)[C@@]3(O)C=C[C@](C)(C[C@@H](OC(=O)/C(=C\C)COC(C)=O)[C@@H]12)O3
T/C (dose: 0.03 mg/kg/injection, schedule: Q01DX009 (ip), vehicle: carboxymethylcellulose (CMC)): 99 % of control | T/C (dose: 0.12 mg/kg/injection, schedule: Q01DX009 (ip), vehicle: carboxymethylcellulose (CMC)): 102 % of control | T/C (dose: 0.25 mg/kg/injection, schedule: Q01DX009 (ip), vehicle: carboxymethylcellulose (CMC)): 97 % of control | T/C (dose: 6.0 mg/kg/injection, schedule: Q01DX009 (ip), vehicle: saline with Tween-80): 99 % of control | T/C (dose: 8.0 mg/kg/injection, schedule: Q01DX009 (ip), vehicle: saline with Tween-80): 105 % of control | T/C (dose: 12.0 mg/kg/injection, schedule: Q01DX009 (ip), vehicle: saline with Tween-80): 109 % of control | T/C (dose: 18.0 mg/kg/injection, schedule: Q01DX009 (ip), vehicle: saline with Tween-80): 92 % of control

CS(=O)(=O)Nc1ccc(Nc2c3ccccc3nc3cc([N+](=O)[O-])ccc23)cc1
T/C (dose: 0.6 mg/kg/injection, schedule: Q01DX009 (ip), vehicle: saline sonified): 112 % of control | T/C (dose: 2.5 mg/kg/injection, schedule: Q01DX009 (ip), vehicle: saline sonified): 154 % of control | T/C (dose: 50.0 mg/kg/injection, schedule: Q01DX001 (ip), vehicle: saline sonified): 158 % of control

CCOC(=O)C(C)Nc1ccccc1 (stereo unspecified)
T/C [1]: 102 % of control | T/C [2]: 91 % of control | T/C (dose: 300.0 mg/kg/injection, schedule: Q01DX009 (ip), vehicle: Klucel (hydroxypropylcellulose) (HPC)): 121 % of control

COc1cccc2c1C(=O)c1c(O)c3c(c(O)c1C2=O)C[C@@](O)(C(=O)COC(=O)CCCCC(=O)O)C[C@@H]3OC1CC(NC(=O)C(F)(F)F)C(O)C(C)O1 (stereo partly specified)
T/C (dose: 18.75 mg/kg/injection, schedule: Q01DX001 (ip), vehicle: other): 175 % of control | T/C (dose: 37.5 mg/kg/injection, schedule: Q01DX001 (ip), vehicle: other): 168 % of control and 205 % of control | T/C (dose: 75.0 mg/kg/injection, schedule: Q01DX001 (ip), vehicle: other): 205 % of control and 271 % of control | T/C (dose: 150.0 mg/kg/injection, schedule: Q01DX001 (ip), vehicle: other): 150 % of control

O=C(O)O
T/C (dose: 100.0 mg/kg/injection, schedule: Q01DX009 (ip), vehicle: saline): 102 % of control | T/C (dose: 200.0 mg/kg/injection, schedule: Q01DX009 (ip), vehicle: saline): 97 % of control | T/C (dose: 400.0 mg/kg/injection, schedule: Q01DX009 (ip), vehicle: saline): 94 % of control

CC(CP(=O)(c1ccccc1)c1ccccc1)C(=O)O (stereo unspecified)
T/C (dose: 100.0 mg/kg/injection, schedule: Q01DX009 (ip), vehicle: saline with Tween-80): 95 % of control | T/C (dose: 200.0 mg/kg/injection, schedule: Q01DX009 (ip), vehicle: saline with Tween-80): 97 % of control | T/C (dose: 400.0 mg/kg/injection, schedule: Q01DX009 (ip), vehicle: saline with Tween-80): 90 % of control

C=C1C(=O)OC2CC(C)C3(O)CCC(C)(CC(OC(=O)C(C)C)C12)O3 (stereo unspecified)
T/C (dose: 50.0 mg/kg/injection, schedule: Q01DX009 (ip), vehicle: Klucel (hydroxypropylcellulose) (HPC)): 99 % of control | T/C [1]: 97 % of control | T/C [2]: 98 % of control

CC1CN1P1(N2CC2C)=NP(N2CC2C)(N2CC2C)=NP(N2CC2C)(N2CC2C)=N1 (stereo unspecified)
T/C (dose: 0.78 mg/kg/injection, schedule: Q01DX009 (ip), vehicle: saline): 111 % of control | T/C (dose: 1.0 mg/kg/injection, schedule: Q01DX009 (ip), vehicle: saline): 89 % of control and 99 % of control | T/C (dose: 1.0 mg/kg/injection, schedule: Q02DX009 (ip), vehicle: saline): 91 % of control and 100 % of control | T/C (dose: 1.56 mg/kg/injection, schedule: Q01DX009 (ip), vehicle: saline): 104 % of control | T/C (dose: 2.0 mg/kg/injection, schedule: Q01DX009 (ip), vehicle: saline): 96 % of control and 103 % of control | T/C (dose: 2.0 mg/kg/injection, schedule: Q02DX009 (ip), vehicle: saline): 100 % of control and 105 % of control and 107 % of control | T/C (dose: 3.12 mg/kg/injection, schedule: Q01DX009 (ip), vehicle: saline): 105 % of control | T/C (dose: 4.0 mg/kg/injection, schedule: Q01DX009 (ip), vehicle: saline): 110 % of control and 116 % of control | T/C (dose: 4.0 mg/kg/injection, schedule: Q02DX009 (ip), vehicle: saline): 99 % of control and 103 % of control and 110 % of control | T/C (dose: 6.25 mg/kg/injection, schedule: Q01DX009 (ip), vehicle: saline): 97 % of control and 117 % of control | T/C (dose: 8.0 mg/kg/injection, schedule: Q01DX009 (ip), vehicle: saline): 107 % of control | T/C (dose: 8.0 mg/kg/injection, schedule: Q02DX009 (ip), vehicle: saline): 108 % of control and 109 % of control and 112 % of control | T/C (dose: 12.5 mg/kg/injection, schedule: Q01DX009 (ip), vehicle: saline): 116 % of control | T/C (dose: 16.0 mg/kg/injection, schedule: Q01DX009 (ip), vehicle: saline): 117 % of control | T/C (dose: 16.0 mg/kg/injection, schedule: Q02DX009 (ip), vehicle: saline): 101 % of control and 112 % of control and 116 % of control | T/C (dose: 25.0 mg/kg/injection, schedule: Q01DX009 (ip), vehicle: saline): 114 % of control and 118 % of control | T/C (dose: 32.0 mg/kg/injection, schedule: Q01DX009 (ip), vehicle: saline): 110 % of control | T/C (dose: 32.0 mg/kg/injection, schedule: Q02DX009 (ip), vehicle: saline): 109 % of control | T/C (dose: 64.0 mg/kg/injection, schedule: Q01DX009 (ip), vehicle: saline): 105 % of control | T/C (dose: 64.0 mg/kg/injection, schedule: Q02DX009 (ip), vehicle: saline): 115 % of control
